Where a SMILES comes first, the peptide text is derived from it.
Legend:
[1] = test system: primary human cells (3C, 4H, LPS, SAg, BT, BF4T, BE3C, CASM3C, HDF3CGF, KF3CT, MyoF, /Mphg systems); assay: Study CSM001-01-b: biomarker readouts in primary human cell systems, compounds in DMSO; type: cell-based
Method: (§1) Profiling was performed using the following processes:
(§2) All test compounds were dissolved in dimethyl sulfoxide (DMSO).

[2] = test system: endothelial cells, T cells, B cells, coronary artery smooth muscle cells and fibroblasts; assay: Study CSM001-01-b: anti-proliferative activity; type: cell-based, human; conditions: DMSO
Method: as §2

primary human cells [3] = assay: Study CSM001-01-b: overt cytotoxicity (SRB, Alamar Blue); type: cell-based; conditions: DMSO, >50% reduction in cellular protein levels (SRB) and/or PBMC viability
Method: An annotated assay profile was prepared for each test agent. Biomarker readouts are annotated when two or more consecutive concentrations are changed in the same direction, relative to the vehicle control, outside of the significance envelope and with an effect size of at least 10% (more than 0.05 log ratio units). Biomarker activities are annotated as “modulated” when they are increased in some system(s) and decreased in other system(s). If applicable, a benchmark overlay was performed at the top non-cytotoxic concentration. Results of a similarity search (all test agents) and clustering (at least three test agents) were determined. […] A table of overtly cytotoxic test agents was also prepared which are test agents with a >50% reduction in cellular protein levels (sulforhodamine B, SRB) in one or more systems; and/or >50% reduction in PBMC viability. […]
Alamar Blue assays were used to determine the viability of non-adherent PBMCs in the assay systems, and are based on the conversion of resazurin to resorufin via the reduction reactions of metabolically active cells. […] Upon entering cells, resazurin is reduced to resorufin which produces very bright red fluorescence. Viable cells continuously convert resazurin to resorufin, thereby generating a quantitative measure of viability and cytotoxicity. The amount of fluorescence produced is proportional to the number of living cells. […]

[4] = test system: primary human cells (3C, 4H, LPS, SAg, BT, BF4T, BE3C, CASM3C, HDF3CGF, KF3CT, MyoF, /Mphg systems); assay: Study CSM002-01-b: biomarker readouts in primary human cell systems, compounds in PBS; type: cell-based; conditions: for TF / TM: hemostasis-related activity
Method: Profiling was performed using the following processes: […]

[5] = test system: endothelial cells, T cells, coronary artery smooth muscle cells and fibroblasts; assay: Study CSM002-01-b: anti-proliferative activity; type: cell-based, human; conditions: PBS
primary human cells [6] = assay: Aspartame first activity profile (FIG. 46): biomarker readouts; type: cell-based
Method: as §1
FIG. 46 provides a first activity profile of aspartame. The key activities of aspartame include inflammation-related activities: decreased MCP-1 and SAA; increased IL-8, IL-1α and VCAM-1; immunomodulatory activities: decreased sIL-2; increased sIgG and sIL-6; modulated CD69; and tissue remodeling activities: decreased MMP-9; increased Collagen-I and tPA; modulated PAI-I.

primary human cells [7] = assay: Aspartame second activity profile (FIG. 47): biomarker readouts; type: cell-based
Method: as §1
(§3) FIG. 47 provides a second activity profile of aspartame. The key activities of aspartame include anti-proliferative to B cells (grey arrow); inflammation-related activities: decreased sTNFα and IL1α; increased MCP-1 and VCAM-1; immunomodulatory activities: increased sIL-17A, sIL-17F, sIL-6, and CD40; and tissue remodeling activities: decreased MMP9; increased MMP3, αSMA, and Col-I.

B cells = assay: Aspartame second activity profile (FIG. 47): anti-proliferative activity; type: cell-based, human
Method: as §1, §3

[8] = test system: primary human cells (HDFSAg, HDF3CGF, KF3CT, HDFLPS systems); assay: Study CSM003-01-b: biomarker readouts in primary human cell systems, compounds in PBS; conditions: for pattern of immune responses in HDFSAg: HDFSAg system
Method: The following compounds were screened in the assay system at the noted concentrations to test for anti-proliferative, inflammation-related, immunomodulatory, tissue remodeling and hemostasis-related activities at the noted concentrations (Table 4). All test compounds were dissolved in phosphate buffered saline (PBS).
(§4) The following primary human cells were used as test systems: HDFSAg (dermal fibroblasts), HDF3CGF (dermal fibroblasts); KF3CT (keratinocytes+dermal fibroblasts) and HDFLPS (dermal fibroblasts+peripheral blood mononuclear cells).

fibroblasts = assay: Study CSM003-01-b: anti-proliferative activity; type: cell-based, human; conditions: PBS, anhydrous
Method: All test compounds were dissolved in phosphate buffered saline (PBS).
as §4

## CC(O)CC(=O)O (stereo not drawn) [beta hydroxybutyric acid]
[1]; immunomodulatory activity
  M-CSF: increased
  sIgG: decreased
[1]; inflammation-related activity
  ICAM-1: increased
  IL-1α: increased
  IL-8: decreased
  MIG: decreased
  VCAM-1: decreased
[1]; tissue remodeling activity
  Collagen-I: increased
  EGFR: increased
  MMP-9: modulated
  PAI-I: modulated
  tPA: increased
  uPA: increased
[2]
  proliferation of T cells: anti-proliferative
  proliferation of endothelial cells: anti-proliferative
Primary human cells [3]
  overt cytotoxicity: overtly toxic in multiple systems at the top concentration tested
[4]
  TF: increased
  TM: increased
[4]; immunomodulatory activity
  CD40: increased
  CD69: increased
  M-CSF: increased
  sIL-6: increased
[4]; inflammation-related activity
  IL1α: decreased
  IL-8: decreased
  MCP-1: increased
  sTNFα: decreased
[4]; tissue remodeling activity
  Col-I: increased
  MMP-3: increased
  MMP-9: decreased
  αSMA: increased
[5]
  proliferation of T cells: anti-proliferative
  proliferation of coronary artery smooth muscle cells: anti-proliferative
  proliferation of endothelial cells: anti-proliferative

## COC(=O)[C@H](Cc1ccccc1)NC(=O)[C@@H](N)CC(=O)O [aspartame] (H-Asp-Phe-OMe)
Primary human cells [6]; immunomodulatory activity
  CD69: modulated
  sIL-2: decreased
  sIL-6: increased
  sIgG: increased
Primary human cells [6]; inflammation-related activity
  IL-1α: increased
  IL-8: increased
  MCP-1: decreased
  SAA: decreased
  VCAM-1: increased
Primary human cells [6]; tissue remodeling activity
  Collagen-I: increased
  MMP-9: decreased
  PAI-I: modulated
  tPA: increased
Primary human cells [7]; immunomodulatory activity
  CD40: increased
  sIL-6: increased
  sIL-17A: increased
  sIL-17F: increased
Primary human cells [7]; inflammation-related activity
  IL1α: decreased
  MCP-1: increased
  VCAM-1: increased
  sTNFα: decreased
Primary human cells [7]; tissue remodeling activity
  Col-I: increased
  MMP3: increased
  MMP9: decreased
  αSMA: increased
B cells
  proliferation of B cells: anti-proliferative

## O=C(O)c1cc(O)c(O)c(O)c1 [gallic acid, 3,4,5-trihydroxy benzoic acid]
[1]; immunomodulatory activity
  M-CSF: decreased
  sIL-2: decreased
  sIL-10: increased
  sIL-17A: decreased
[1]; inflammation-related activity
  Eotaxin-3: decreased
  I-TAC: decreased
  ICAM-1: decreased
  IL-1α: decreased
  IL-8: increased
  IP-10: decreased
  MIG: decreased
  MIP-1: increased
  SAA: decreased
  VCAM-1: modulated
  sTNFα: decreased
[1]; tissue remodeling activity
  Collagen-III: increased
  Collagen-IV: increased
  EGFR: increased
  Keratin 8/18: decreased
  MMP-1: increased
  MMP-3: increased
  MMP-9: decreased
  PAI-I: modulated
  bFGF: decreased
  tPA: increased
  α-SMA: increased
[2]
  proliferation of T cells: antiproliferative
  proliferation of coronary artery smooth muscle cells: antiproliferative
  proliferation of endothelial cells: antiproliferative
  proliferation of fibroblasts: antiproliferative
[4]; immunomodulatory activity
  M-CSF: modulated
[4]; inflammation-related activity
  IL-8: increased
  IP-10: increased
  ITAC: decreased
  VCAM-1: decreased
  sPGE2: increased
  sTNFα: decreased
[4]; tissue remodeling activity
  MMP-9: increased
  tPA: increased
  uPA: increased
  αSMA: increased
[5]
  proliferation of T cells: anti-proliferative
  proliferation of coronary artery smooth muscle cells: anti-proliferative
  proliferation of endothelial cells: anti-proliferative
  proliferation of fibroblasts: anti-proliferative

## O.O.O.O.O.O.[Cl-].[Cl-].[Sr+2] [Strontium chloride hexahydrate]
[8]
  pattern of immune responses in HDFSAg: enhanced immune responses
[8]; immunomodulatory activity
  sIL-6: increased
  sIL-10: increased
  sIL-17A: increased
  sIL-17F: increased

## O=[N+]([O-])[O-].O=[N+]([O-])[O-].[Sr+2] [Strontium nitrate, Strontium Nitrate]
[1]; hemostasis-related activity
  TF: increased
  TM: increased
[1]; immunomodulatory activity
  HLA-DR: decreased
  M-CSF: increased
  sIL-6: decreased
  sIL-17A: decreased
  sIL-17F: decreased
  sIgG: decreased
[1]; inflammation-related activity
  Eotaxin-3: decreased
  I-TAC: decreased
  IL-1α: decreased
  IL-8: decreased
  IP-10: decreased
  MCP-1: decreased
  SAA: decreased
  VCAM-1: decreased
  sPGE2: increased
  sTNFα: decreased
[1]; tissue remodeling activity
  Keratin 8/18: increased
  MMP-1: decreased
  MMP-3: increased
  MMP-9: decreased
  PAI-I: decreased
  TIMP-2: increased
  uPAR: decreased
[2]
  proliferation of B cells: anti-proliferative
  proliferation of T cells: anti-proliferative
  proliferation of coronary artery smooth muscle cells: anti-proliferative
  proliferation of endothelial cells: anti-proliferative
  proliferation of fibroblasts: anti-proliferative
[4]
  TF: decreased
  TM: increased
[4]; immunomodulatory activity
  CD40: increased
  M-CSF: decreased
[4]; inflammation-related activity
  ICAM-1: increased
  IL1α: modulated
  IP-10: decreased
  MIP-1: decreased
  VCAM-1: increased
  sTNFα: decreased
[4]; tissue remodeling activity
  Ker 8/18: increased
  MMP-1: increased
  MMP-9: increased
  tPA: increased
  uPAR: increased
[5]
  proliferation of coronary artery smooth muscle cells: anti-proliferative
fibroblasts
  proliferation of fibroblasts: anti-proliferative to fibroblasts at the top concentration only
[8]
  pattern of immune responses in HDFSAg: enhanced immune responses
[8]; immunomodulatory activity
  sIL-2: increased
  sIL-6: increased
  sIL-10: increased
[8]; inflammation-related activity
  MCP-1: decreased

## CC(=O)N[C@@H](CS)C(=O)O [N-acetyl-L-cysteine]
[1]; immunomodulatory activity
  CD40: decreased
  sIL-17A: decreased
[1]; inflammation-related activity
  Eotaxin-3: decreased
  IL-6: increased
  IL-8: modulated
  IP-10: decreased
  MIG: decreased
  sTNFα: decreased
[1]; tissue remodeling activity
  Collagen-I: increased
  EGFR: decreased
  Keratin 8/18: increased
  MMP-1: increased
  MMP-3: increased
  MMP-9: modulated
  PAI-I: increased
  TIMP-I: increased
  tPA: increased
  uPAR: increased
Primary human cells [3]
  overt cytotoxicity: overtly toxic in multiple systems at the top two concentrations tested
[4]; inflammation-related activity
  Esel: decreased
  IL1α: decreased
  IL-6: decreased
  IL-8: decreased
  IP-10: decreased
  ITAC: decreased
  sTNFα: decreased
[4]; tissue remodeling activity
  Col-I: increased
  EGFR: decreased
  MMP-3: increased
  tPA: modulated
  αSMA: increased

— patent US20210163308A1, “COMPOSITIONS AND METHODS FOR THE MODULATION OF CYTOKINES” (GALLEON LABS LLC, priority 2018, published 2021)
